Tests used:
PLK1 = PLK1 (Homo sapiens, UniProt P53350); experiment: PLK1 biochemical inhibition
Pim-1 = biological target: T1, Pim-1 (Homo sapiens, UniProt P11309); experiment: TR-FRET assay, Pim-1 kinase (phosphorylation of Bad Ser112); format: biochemical; conditions: TR-FRET; ATP 40 μM; read-out: IC50 Pim1
T1 construct: His6-labelled recombinant full-length human Pim-1, Pim-2 or Pim-3 protein; His6; made in house
In short: (§1)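 Recombinant His6-tagged full-length human Pim-1, Pim-2 or Pim-3 phosphorylates His6-tagged full-length human Bad at 40 μM ATP (apparent KM). Phospho-Ser112 is detected by TR-FRET between Eu-labelled anti-phosphoBad and APC-labelled anti-His6 (665/615 nm ratio); 10-point duplicate series, top typically 30 μM, IC50 from 4-parameter logistic fit.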

PI3K = PI3K biochemical inhibition
Pim-3 = biological target: T2, Pim-3 (Homo sapiens, UniProt Q86V86); experiment: TR-FRET assay, Pim-3 kinase (phosphorylation of Bad Ser112); format: biochemical; conditions: TR-FRET; ATP 40 μM; read-out: IC50 Pim3
T2 construct: His6-labelled recombinant full-length human Pim-1, Pim-2 or Pim-3 protein; His6; made in house
In short: as §1

Pim-2 = biological target: T3, Pim-2 (Homo sapiens, UniProt Q9P1W9); experiment: TR-FRET assay, Pim-2 kinase (phosphorylation of Bad Ser112); format: biochemical; conditions: TR-FRET; ATP 40 μM; read-out: IC50 Pim2
T3 construct: His6-labelled recombinant full-length human Pim-1, Pim-2 or Pim-3 protein; His6; made in house
In short: as §1

MV4-11 = experiment: Cell viability assay (CellTiter-Blue), MV4-11; format: cell-based; conditions: Homo sapiens; MV4-11 cells; cell proliferation/viability; read-out: IC50 MV4-11 μM (myeloma)
Text: (§2) The representative compounds of the invention are also screened as regards their effects on cell proliferation and viability using a variety of human tumour cell lines, which are representative of various pathological indications. These cell lines include: • Models of haematological cancers: • TF-1 (acute myelogenic leukaemia; AML M6 at the time of diagnosis); • KG-1 (AML; erythroleukaemia evolving into AML); • KG-1a (AML; sub-clone derived from immature KG-1); • EOL-1 (AML; eosinophilic leukaemia); • PL-21 (AML; M3); • ML-2 (AML; T-NHL evolving into T-ALL evolving into AML M4); • HL-60 (AML, M3); • Kasumi-1 (AML); • GDM-1 (AML); • K-562 (CML—chronic myelogenic leukaemia; blastic crisis); • JURL-MK1 (CML; blastic crisis); • DND-41 (T-ALL—-cell acute lymphoblastic leukaemia); • Jurkat (T-ALL); NALM-6 (B-ALL—B-cell ALL); • CEM (ALL; lymphosarcoma evolving into ALL); • Jeko-1 (B-NHL—B-cell non-Hodgkin lymphoma; mantle-cell lymphoma derived from a variant with large cells as a leukaemic transformation); • WSU-DLCL2 (B-NHL; large B-cell diffuse lymphoma); • RL (B-NHL; undifferentiated diffuse); • OCI-Ly10 (B-NHL); • DoHH-2 (B-NHL); • RPMI-8226 (MM—multiple myeloma); • JVM-2 (B-CLL—B-cell chronic lymphocytic leukaemia); and • JVM-3 (B-CLL) • MV4-11 (AML) • MOLM13 (AML). • Solid tumour models: • HCT-116 (bowel cancer); • HT-29 (bowel cancer); • HC-15 (bowel cancer); • H460 (lung cancer; non-small-cell lung cancer); • A375 (melanoma); • B16F10 (melanoma); • MDA-A1 (breast cancer); • MDA-MB231 (breast cancer); • MDA-MB231 adr (breast cancer); • PANC-1 (pancreatic cancer); and • PC-3 (prostate cancer).
(§3) In order to measure the viability, the tumour cells are incubated in a 96-well or 384-well format for 48, 72 or 96 hours, preferably 72 hours, with a compound of the invention at dilutions of a factor 3 with, in general, nine doses in total, the highest dose being equal to 10 μM or 30 μM. The cell viability is evaluated by adding CellTiter-Blue® (Promega, Madison, Wis., United States) for 4 hours and end-point readings are taken using a SpectraMax Genmini EM (Molecular Devices, Sunnyvale, Calif., United States). The CellTiter-Blue® cell viability assay measures the ability of the cells in culture to reduce resazurin to resorufin, the fluorescence signal intensity being directly proportional to the number of live cells.

KG-1a = experiment: Cell viability assay (CellTiter-Blue), KG-1a; format: cell-based; conditions: Homo sapiens; KG-1a cells; cell proliferation/viability; read-out: EC50 KG-1a μM (leukaemia)
Text: as §2, §3

EOL-1 = experiment: Cell viability assay (CellTiter-Blue), EOL-1; format: cell-based; conditions: Homo sapiens, EOL1, read-out: EC50 EOL-1 μM (lymphoma); EOL-1 cells; cell proliferation/viability
Text: as §2, §3

MOLM-13 = experiment: Cell viability assay (CellTiter-Blue), MOLM-13; format: cell-based; conditions: Homo sapiens; MOLM-13 cells; cell proliferation/viability; read-out: IC50 MOLM-13 μM (myeloma)
Text: as §2, §3

HCT116 = experiment: Cell viability assay (CellTiter-Blue), HCT116; format: cell-based; conditions: Homo sapiens, HCT-116; HCT116 cells; cell proliferation/viability; read-out: EC50 HCT116 μM (bowel)
Protocol: (§4) The representative compounds of the invention are also screened as regards their effects on cell proliferation and viability using a variety of human tumour cell lines, which are representative of various pathological indications. […]
as §3

B16F10 = experiment: Cell viability assay (CellTiter-Blue), B16F10; format: cell-based, human; conditions: Mus musculus, B16-F10; B16F10 cells; cell proliferation/viability; read-out: EC50 B16F10 μM (melanoma)
Protocol: as §4, §3

H460 = experiment: Cell viability assay (CellTiter-Blue), H460; format: cell-based; conditions: Homo sapiens, NCI-H460; H460 cells; cell proliferation/viability; read-out: EC50 H460 μM (lung)
Protocol: as §4, §3

T1 sequence (P11309 whole entry): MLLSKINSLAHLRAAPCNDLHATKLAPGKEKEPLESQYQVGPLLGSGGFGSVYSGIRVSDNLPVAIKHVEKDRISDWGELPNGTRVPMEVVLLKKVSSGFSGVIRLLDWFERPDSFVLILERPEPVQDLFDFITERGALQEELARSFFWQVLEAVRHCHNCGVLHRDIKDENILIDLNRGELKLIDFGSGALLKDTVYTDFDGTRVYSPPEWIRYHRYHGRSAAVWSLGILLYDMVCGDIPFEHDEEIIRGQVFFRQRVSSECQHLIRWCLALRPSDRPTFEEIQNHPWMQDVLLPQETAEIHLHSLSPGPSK
Chain of PLK1 (P53350 whole entry, species assumed): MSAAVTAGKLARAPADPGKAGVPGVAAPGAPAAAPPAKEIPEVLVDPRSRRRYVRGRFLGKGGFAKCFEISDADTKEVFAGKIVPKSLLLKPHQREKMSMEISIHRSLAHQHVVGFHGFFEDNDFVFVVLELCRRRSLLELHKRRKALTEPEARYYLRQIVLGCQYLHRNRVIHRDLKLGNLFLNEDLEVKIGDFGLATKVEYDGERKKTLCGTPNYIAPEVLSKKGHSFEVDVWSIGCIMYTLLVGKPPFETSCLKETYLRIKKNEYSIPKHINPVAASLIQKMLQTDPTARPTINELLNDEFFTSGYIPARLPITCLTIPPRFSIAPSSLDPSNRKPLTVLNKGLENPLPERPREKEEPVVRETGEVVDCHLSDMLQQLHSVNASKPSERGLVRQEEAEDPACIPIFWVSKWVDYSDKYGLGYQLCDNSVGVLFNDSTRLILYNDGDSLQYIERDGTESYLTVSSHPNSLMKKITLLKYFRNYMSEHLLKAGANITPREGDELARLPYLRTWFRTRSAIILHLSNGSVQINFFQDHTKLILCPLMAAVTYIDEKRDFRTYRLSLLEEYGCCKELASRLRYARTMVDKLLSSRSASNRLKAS
T3 sequence (Q9P1W9 whole entry): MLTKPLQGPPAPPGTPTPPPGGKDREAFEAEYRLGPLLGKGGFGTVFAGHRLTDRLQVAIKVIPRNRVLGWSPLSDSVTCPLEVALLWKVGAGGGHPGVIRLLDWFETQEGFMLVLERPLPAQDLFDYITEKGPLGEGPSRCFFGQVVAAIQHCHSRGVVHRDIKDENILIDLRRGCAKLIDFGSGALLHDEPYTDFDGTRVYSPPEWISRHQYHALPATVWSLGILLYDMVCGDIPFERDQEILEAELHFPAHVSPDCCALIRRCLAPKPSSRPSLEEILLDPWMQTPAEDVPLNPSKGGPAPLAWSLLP

SMILES | IC50 (PLK1) [nM] | IC50 (Pim-1) [nM] | IC50 (PI3K) [nM] | IC50 (Pim-3) [nM] | IC50 (Pim-2) [nM] | IC50 (MV4-11) [nM] | EC50 (KG-1a) [µM] | EC50 (EOL-1) [nM] | IC50 (MOLM-13) [nM] | EC50 (HCT116) [nM] | EC50 (B16F10) [nM] | EC50 (H460) [nM]
O=S(=O)(NC1CC1)c1ccc(-c2c(F)cnc3[nH]c4cnc(-c5cccnc5)cc4c23)cc1 [Example 28, N-cyclopropyl-4-(3-fluoro-6-(pyrid-3-yl)-9H-pyrrolo[2,3-b:5,4-c′]-dipyrid-4-yl]benzene-sulfonamide] | 1 to 100 | 1 to 100 | 1000 to 5000 | 100 to 1000 | > 5000 | – | – | – | – | – | – | –
CCCN(C)c1cnc2[nH]c3cnc(-c4cccnc4)cc3c2c1 [Example 10, N-methyl-N-propyl-6-(pyrid-3-yl)-9H-pyrrolo[2,3-b:5,4-c′]dipyrid-3-amine] | 100 to 1000 | 1 to 100 | – | 1 to 100 | 1000 to 5000 | 100 to 1000 | 0.1 to 1 | 100 to 1000 | – | – | – | –
Cn1cc(-c2cc3c(cn2)[nH]c2ncccc23)cn1 [Example 39, 6-(1-Methyl-1H-pyrazol-4-yl)-9H-pyrrolo[2,3-b:5,4-c′]dipyridine] | 1000 to 5000 | 1 to 100 | – | 100 to 1000 | 1000 to 5000 | 1000 to 5000 | 0.1 to 1 | 100 to 1000 | 1000 to 5000 | – | – | –
CC(C)(C)OC(=O)c1cnc2[nH]c3cnc(-c4cccnc4)cc3c2c1 [Example 5, 2-methylpropan-2-yl 6-(pyrid-3-yl)-9H-pyrrolo[2,3-b:5,4-c′]dipyridine-3-carboxylate] | > 5000 | 1 to 100 | – | 100 to 1000 | > 5000 | 100 to 1000 | 0.1 to 1 | 100 to 1000 | – | – | – | –
c1cncc(-c2cc3c(cn2)[nH]c2ncccc23)c1 [Example 1, 6-pyrid-3-yl-9H-pyrrolo[2,3-b:5,4-c′]dipyridine] | 100 to 1000 | 1 to 100 | – | 100 to 1000 | 1000 to 5000 | 1000 to 5000 | 1 to 5 | 1000 to 5000 | – | – | – | –
Fc1cnc2[nH]c3cnc(-c4cccnc4)cc3c2c1/C=C/C1CC1 [Example 27, 4-[(E)-2-cyclopropyl-ethenyl]-3-fluoro-6-(pyrid-3-yl)-9H-pyrrolo-[2,3-b:5,4-c′]dipyridine] | – | 1 to 100 | > 5000 | 100 to 1000 | > 5000 | – | – | – | – | – | – | –
COc1cc(OC)cc(-c2c(F)cnc3[nH]c4cnc(-c5cccnc5)cc4c23)c1 [Example 23, 4-(3,5-dimethoxy-phenyl)-3-fluoro-6-(pyrid-3-yl)-9H-pyrrolo-[2,3-b:5,4-c′]dipyridine] | 1000 to 5000 | 1 to 100 | > 5000 | 100 to 1000 | > 5000 | – | – | – | – | – | – | –
CS(=O)(=O)Nc1ccc(-c2c(F)cnc3[nH]c4cnc(-c5cccnc5)cc4c23)cc1 [Example 22, N-[4-(3-Fluoro-6-(pyrid-3-yl)-9H-pyrrolo[2,3-b:5,4-c′]dipyrid-4-yl)-phenyl]methanesulfon-amide] | 1 to 100 | 1 to 100 | 100 to 1000 | 1 to 100 | 100 to 1000 | 1 to 100 | – | 1 to 100 | 1 to 100 | 1 to 100 | 1 to 100 | 1 to 100
c1cncc(-c2cc3c(cn2)[nH]c2ncc(N4CCOCC4)cc23)c1 [Example 14, 3-(morpholin-4-yl)-6-(pyrid-3-yl)-9H-pyrrolo[2,3-b:5,4-c′]dipyridine] | > 5000 | 1 to 100 | – | 1 to 100 | 1000 to 5000 | 100 to 1000 | 1 to 5 | 100 to 1000 | – | – | – | –
CCN(CC)CCN1CCN(c2c(F)cnc3[nH]c4cnc(-c5cccnc5)cc4c23)CC1 [Example 79, N,N-diethyl-2-{4-[3-fluoro-6-(pyrid-3-yl)-9H-pyrrolo[2,3-b:5,4-c′]dipyrid-4-yl]-piperazin-1-yl}-ethanamine] | 100 to 1000 | 1 to 100 | 1000 to 5000 | 1 to 100 | 1000 to 5000 | – | – | – | – | – | – | –
Oc1cccc(-c2c(F)cnc3[nH]c4cnc(-c5cccnc5)cc4c23)c1 [Example 26] | – | 1 to 100 | 100 to 1000 | 100 to 1000 | 1000 to 5000 | – | – | – | – | – | – | –
NS(=O)(=O)c1cccc(-c2c(F)cnc3[nH]c4cnc(-c5cccnc5)cc4c23)c1 [Example 21, 3-[3-Fluoro-6-(pyrid-3-yl)-9H-pyrrolo[2,3-b:5,4-c′]dipyrid-4-yl]-benzenesulfonamide] | 1 to 100 | 1 to 100 | 1000 to 5000 | 100 to 1000 | > 5000 | – | – | – | – | – | – | –
Fc1cnc2[nH]c3cnc(-c4cccnc4)cc3c2c1N1CCN(CCCN2CCCCC2)CC1 [Example 86, 3-fluoro-4-{4-[3-(piperid-1-yl)propyl]piperazin-1-yl}-6-(pyrid-3-yl)-9H-pyrrolo-[2,3-b:5,4-c′]-dipyridine] | 100 to 1000 | 1 to 100 | > 5000 | 1 to 100 | 100 to 1000 | 100 to 1000 | – | 100 to 1000 | – | – | – | –
CCN(CC)C(=O)c1cccc(-c2cnc3[nH]c4cnc(-c5cccnc5)cc4c3c2)c1 [Example 119, N,N-diethyl-3-[6-(pyrid-3-yl)-9H-pyrrolo[2,3-b:5,4-c′]dipyrid-3-yl]-benzamide] | 100 to 1000 | 1 to 100 | – | 1 to 100 | 100 to 1000 | 100 to 1000 | – | 1 to 100 | 100 to 1000 | – | – | –
CC(C)(CO)COC(=O)c1cnc2[nH]c3cnc(-c4cccnc4)cc3c2c1 [Example 15, 3-hydroxy-2,2-dimethylpropyl 6-(pyrid-3-yl)-9H-pyrrolo[2,3-b:5,4-c′]-dipyridine-3-carboxylate] | > 5000 | 1 to 100 | – | 1 to 100 | 100 to 1000 | 100 to 1000 | 0.1 to 1 | 100 to 1000 | – | – | – | –
CCN(CC)CCOc1ccc(-c2c(F)cnc3[nH]c4cnc(-c5cccnc5)cc4c23)cc1 [Example 100, N,N-diethyl-2-{4-[3-fluoro-6-(pyrid-3-yl)-9H-pyrrolo[2,3-b:5,4-c′]dipyrid-4-yl]-phenoxy}ethanamine] | 1 to 100 | 1 to 100 | – | 1 to 100 | 100 to 1000 | 100 to 1000 | – | 1 to 100 | 100 to 1000 | – | – | –
COc1cnc2[nH]c3cnc(-c4cccnc4)cc3c2c1-c1ccc(NS(C)(=O)=O)cc1 [Example 44, N-[4-(3-methoxy-6-(pyrid-3-yl)-9H-pyrrolo[2,3-b:5,4-c′]dipyrid-4-yl)phenyl]methane-sulfonamide] | 1 to 100 | 1 to 100 | 1 to 100 | 1 to 100 | 1 to 100 | 1 to 100 | – | 1 to 100 | 1 to 100 | – | – | –

Source: patent US20110178053A1, “AZACARBOLINE DERIVATIVES, PREPARATION METHOD THEREOF AND THERAPEUTIC USE OF SAME” (SANOFI-AVENTIS, priority 2008, published 2011)
